Here are results for one compound from patent publication US20230339977A1, “SUBSTITUTED HETEROARYL COMPOUND, AND COMPOSITION AND APPLICATION THEREOF” (SUNSHINE LAKE PHARMA CO., LTD., priority 2020, published 2023).

This series in a line: Stability in human liver microsomes. The format is in vitro ADME. Here is the method: The stability of the compounds of the present invention in human and rat liver microsomes can be tested by the following two methods:
Human or rat liver microsomes were incubated in polypropylene tubes in duplicate wells. A typical incubation mixture included human or rat liver microsomes (0.5 mg protein/mL), target compound (5 µM), and a total volume of 200 µL of NADPH (1.0 mM) potassium phosphate buffer (PBS, 100 mM, pH 7.4), the compound was dissolved in DMSO and diluted with PBS, the final concentration of the DMSO solution was 0.05%. Human or rat liver microsomes were incubated at 37° C. in an air-connected water bath. After pre-incubation for 3 minutes, […] was added to start the reaction. The same volume of ice-cold acetonitrile was added to terminate the reaction at different time points (0, 5, 10, 15, 30 and 60 min). Samples were stored at -80° C. until LC/MS/MS analysis.
The linear concentration range of each target compound was determined, and then, the concentration of the target compounds in the human or rat liver microsomes incubation mixture was determined by LC/MS/MS method.
Parallel incubations were performed using denatured microsomes as a negative control and dextromethorphan (70 µM) as a positive control. Negative control was incubated at 37° C., the reaction was terminated at different time points (0, 15 and 60 minutes); positive control was incubated at 37° C., the reaction was terminated at different time points (0, 5, 10, 15, 30 and 60 minutes). Positive and negative control samples were used in each assay to ensure the integrity of the microsomal incubation system.
In addition, the stability data of the compounds of the present invention in human or rat liver microsomes can also be obtained from the following tests:
Human or rat liver microsomes were incubated in polypropylene tubes in duplicate wells. A typical incubation mixture included human or rat liver microsomes (final concentration: 0.5 mg protein/mL), target compound (final concentration: 1.5 µM) and a total volume of 30 µL of K-buffer solution (containing 1.0 mM EDTA, 100 mM, pH 7.4). Compounds were dissolved in DMSO and diluted with K-buffer solution, the final concentration of DMSO was 0.2%. […]
For each reaction, in vivo intrinsic hepatic clearance CLint is extrapolated by plotting the compound concentration (expressed as a percentage) in human or rat liver microsomal incubations as a percentage relative to time zero (ref.: Naritomi Y, Terashita S, Kimura S, Suzuki A, Kagayama A, Sugiyama Y. Prediction of human hepatic clearance from in vivo animal experiments and in vitro metabolic studies with liver microsomes from animals and humans. Drug Metabolism and Disposition 2001, 29: 1316-1324.).
(In general: Liver microsomes are vesicles of endoplasmic reticulum, rich in cytochrome P450 enzymes.)

Molecules are shown by their SMILES.

For `CC(=O)Nc1cc2c(-c3ccc4c(n3)C3(CCOC3)OC4)cn(C)c2cn1` (centres unmarked) [Example 2, N-(3-(4,5-Dihydro-2H,5′H-Spiro[Furan-3,7′-Furo[3,4-b]Pyridin]-2′-yl)-1-Methyl-1H-Pyrrolo[2,3-c]Pyridin-5-yl)Acetamide], for the setting “human, pH 7.4, read-out: Human T½”, the half-life came to 48.2 min. The CLint scaled (pH 7.4, in vivo intrinsic hepatic clearance extrapolated) is 36 mL/min/kg.

The CLint scaled is a measure of how fast metabolising enzymes remove a compound, apart from limits set by blood flow.
